Where two headings read alike, the source gives them in different places.

Data set [1] deals with LS513 (ATCC CRL-2134) cells. Put plainly: KRAS G12D 2D CellTiter-Glo proliferation assay, LS513. The class given is cell-based. As to conditions: Homo sapiens, LS-513, 2D proliferation, 72 hours. Here is the method: (§1) AsPC-1 (ATCC CRL-1682) and LS513 (ATCC CRL-2134) cells were purchased from ATCC, GP2D (Cobioer CBP60010) cells was purchased from Cobioer biosciences CO., LTD, and each cell was cultured in medium supplemented with 10% fetal bovine serum (FBS), according to the protocol recommended by the manufacture. Cells were seeded 800 cells/well in 384-well plates (Corning) and incubated at 37° C., 5% CO2 for 18 hours. Serially diluted compound was added to the cells, and plates were incubated at 37° C., 5% CO2 for 72 hours. Cell viability was measured using a CellTiter-Glo® Luminescent Cell Viability Assay kit (Promega) according to the manufacturer's protocol.
(§2) The 2D and 3D proliferation data of the exemplary compounds of the present disclosure in different cell lines are shown in Table 3.
On the technique in general: ATP-based viability assays read luminescence as a measure of living cells.

The subject of the next data set is Panc-1 p-ERK. Put plainly: Phospho-ERK 1/2 assay, Panc-1 (Table 2). Format: cell-based. Conditions: Homo sapiens; Panc-1 cells. Here is the method: (§3) Allow PNAC-1/HPAC cell growth in a T75 flask in DMEM and 10% 1 fetal calf serum (FCS; Gibco), using standard tissue culture procedures until ˜80% confluency is achieved. Day 1, seed 6000 cells/well in 384 well plate and incubate at 37° C., 5% CO2. Add diluted compound by Echo 550, final DMSO is 0.5%, incubate cells at 37° C., 5% CO2 for 3 hours. Then, remove medium and fix cells with 3.7% formaldehyde in PBS (PFA) by Apricot. Wash with PBS once. Permeabilize cells with cold 100% methanol and repeat wash once with PBS once. Add Li-Cor blocking buffer to each well and incubate 1.5 hours at RT. Remove blocking buffer and add primary antibody mixture (rabbit anti pERK, mouse anti GAPDH). Incubate at 4° C. overnight. Day 2, wash with PBST (Tween-20 in PBS) with total 3 times and then add secondary antibody mixture (goat anti rabbit 800CW (1:800 dilution in the combined solution) and goat anti mouse 680RD (1:800 dilution in the combined solution)), incubate for 60 minutes at RT away from light. Repeat washing with PBST 3 times. After final wash, centrifuge plate up-side-down at 1000 rpm to remove wash solution completely from wells. Before plate scanning, clean the bottom plate surface and the Odyssey* Imager scanning bed (if applicable) with moist, lint-free tissue to avoid any obstructions during scanning. Scan plate with detection in both 700 and 800 nm channels.
(§4) Table 2 describes the p-ERK IC50 values and selectivity over WT-KRAS cell line MKN-1 of the exemplary compounds of the present disclosure and reference compound MRTX-1133.

For data set [2], the system named is HPAC (ATCC CRL-2119) cells. Put plainly: KRAS G12D 3D CellTiter-Glo proliferation assay, HPAC. Format: cell-based. As to conditions: Homo sapiens, 168 h, 3D proliferation, 7 days, CellTiter-Glo 3D. Here is the method: (§5) HPAC (ATCC CRL-2119) and AsPC-1 (ATCC CRL-1682) cells were purchased from ATCC, and each cell was cultured in medium supplemented with 10% fetal bovine serum (FBS), according to the protocol recommended by the manufacture. Serially diluted compound was added to 384-well Ultra-Low Attachment Surface round bottom plate (Corning). 400 cells/well were seeded in plate and incubated at 37° C., 5% CO2 for 7 days. Cell viability was measured using a CellTiter-Glo® 3D Cell Viability Assay kit (Promega) according to the manufacturer's protocol.
as §2

Data set [3] deals with GP2D (Cobioer CBP60010) cells. The data set can be described thus: KRAS G12D 2D CellTiter-Glo proliferation assay, GP2D. Format: cell-based. Conditions: 2D proliferation, 72 hours. Here is the method:
as §1, §2

The test system of data set [4] is AsPC-1 (ATCC CRL-1682) cells. The data set can be described thus: KRAS G12D 3D CellTiter-Glo proliferation assay, AsPC-1. Conditions: Homo sapiens, ASPC1, 168 h; 3D proliferation, 7 days, CellTiter-Glo 3D. The class given is cell-based. Here is the method: as §5, §2
The test system of data set [5] is p-ERK in PNAC-1/HPAC cell. Put plainly: Phospho-ERK 1/2 assay (Table 1). Format: cell-based. As to conditions: PNAC-1/HPAC cell, 3 hours compound incubation, read-out: p-ERK IC50. Here is the method:
as §3

Data set [6] concerns AsPC-1 (ATCC CRL-1682) cells. The data set can be described thus: KRAS G12D 2D CellTiter-Glo proliferation assay, AsPC-1. The class given is cell-based. As to conditions: Homo sapiens, ASPC1, 2D proliferation, 72 hours. Here is the method:
as §1, §2

The next data set has as its system WT-KRAS cell line MKN-1. The data set can be described thus: Phospho-ERK 1/2 assay, WT-KRAS cell line MKN-1 (Table 2). Format: cell-based. As to conditions: for IC50: Homo sapiens, WT-KRAS cell line MKN-1, p-ERK; for Selectivity Fold: selectivity over WT-KRAS cell line MKN-1 vs Panc-1 p-ERK. Here is the method:
as §3, §4

Data set [7] is described as follows: In vivo oral bioavailability assay. Conditions: Balb/c mice female, IV bolus 1 mg/kg and oral gavage 30 mg/kg, single dose. Here is the method: Single dose following IV bolus (1 mg/kg, 0.2 mg/mL in 1% DMSO, 99% SBE-β-CD (10% w/v) in water) and oral gavage (30 mg/kg, 3 mg/mL in 1% MC in DI water) administration of test compound in Balb/c Mice female. The blood samples were collected at 2 min, 5 min, 10 min, 30 min, 1 hr, 2 hr, 4 hr, 8 hr and 24 hr (additional 32 hr and 48 hr for MRTX1133) after IV bolus, at 15 min, 30 min, 1 hr, 1.5 hr, 2 hr, 3 hr, 4 hr, 8 hr and 24 hr (additional 32 hr and 48 hr for MRTX1133) after PO administration. The plasma concentrations of compounds were determined with UPLC-MS/MS.

Consider `C#Cc1cccc2cccc(-c3nc4c5c(nc(OC[C@@]67CCCN6C[C@H](F)C7)nc5c3F)N3C[C@H]5CC[C@H](N5)[C@H]3CO4)c12` [Compound 25, (5aS,6S,9R)-2-(8-ethynylnaphthalen-1-yl)-1-fluoro-12-(((2R,7aS)-2-fluorotetrahydro-1H-pyrrolizin-7a(5H)-yl)methoxy)-5a,6,7,8,9,10-hexahydro-5H-4-oxa-3,10a,11,13,14-pentaaza-6,9-methanonaphtho[1,8-ab]heptalene], for which the IC50 in [1] came to 0.08 µM; with Panc-1 p-ERK, 0.01 µM; in data set [2], 0.076 µM; in data set [3] it was 0.023 µM; in data set [4], 0.054 µM; in [5] (Homo sapiens) it was 0.01 µM. The figures for the IC50 (in data set [6]; in the data set with WT-KRAS cell line MKN-1) were 0.516 µM and 0.754 µM, respectively. Also, the “Selectivity Fold” value in the data set on WT-KRAS cell line MKN-1 is 75 Fold. Also, the “Bioavailability (%)” value in data set [7] is given as 39.2%. Moreover, the “Fa*Fg (%)” value in [7] was 56.6%.
For the compound `Oc1cc(Cl)c(C2CC2)c(-c2nc3c4c(nc(OC[C@@]56CCCN5C[C@H](F)C6)nc4c2F)N2C[C@@H]4CC[C@@H](N4)C2CO3)c1` (stereo partly drawn) [Compound 24, 3-chloro-4-cyclopropyl-5-((6R,9S)-1-fluoro-12-(((2R,7aS)-2-fluorotetrahydro-1H-pyrrolizin-7a(5H)-yl)methoxy)-5a,6,7,8,9,10-hexahydro-5H-4-oxa-3,10a,11,13,14-pentaaza-6,9-methanonaphtho[1,8-ab]heptalen-2-yl)phenol], the IC50 in data set [1] stood at 0.093 µM; in data set [2], 0.0071 µM; in data set [3] it was 0.0022 µM; in data set [4] it was 0.0087 µM; in [5] (Homo sapiens), 0.007 µM; in [6], 0.071 µM.
As for `C#Cc1c(F)ccc2cc(O)cc(-c3ncc4c(N5CC6CCC(C5)N6)nc(OC[C@@]56CCCN5C[C@H](F)C6)nc4c3F)c12` [MRTX-1133, reference compound], in the data set with Panc-1 p-ERK, the IC50 amounted to 0.0023 µM. In the data set on WT-KRAS cell line MKN-1, the IC50 turned out to be 0.083 µM and the “Selectivity Fold” value is reported as 36 Fold. Moreover, in data set [7], the “Bioavailability (%)” value is listed as 0.66% and the “Fa*Fg (%)” value is listed as 0.95%.
As for `Fc1ccc2cccc(-c3nc4c5c(nc(OC[C@@]67CCCN6C[C@H](F)C7)nc5c3F)N3C[C@@H]5CC[C@@H](N5)C3CO4)c2c1Cl` (stereo partly drawn) [Compound 11, (6R,9S)-2-(8-chloro-7-fluoronaphthalen-1-yl)-1-fluoro-12-(((2R,7aS)-2-fluorotetrahydro-1H-pyrrolizin-7a(5H)-yl)methoxy)-5a,6,7,8,9,10-hexahydro-5H-4-oxa-3,10a,11,13,14-pentaaza-6,9-methanonaphtho[1,8-ab]heptalene], the half-inhibitory concentration (IC50) in [5] (Homo sapiens) came out at 0.053 µM.
Take `CCc1c(F)ccc2cc(O)cc(-c3nc4c5c(nc(OC[C@@]67CCCN6C[C@H](F)C7)nc5c3F)N3C[C@H]5CC[C@H](N5)[C@H]3CO4)c12` [Compound 28, 5-ethyl-6-fluoro-4-((5aS,6S,9R)-1-fluoro-12-(((2R,7aS)-2-fluorotetrahydro-1H-pyrrolizin-7a(5H)-yl)methoxy)-5a,6,7,8,9,10-hexahydro-5H-4-oxa-3,10a,11,13,14-pentaaza-6,9-methanonaphtho[1,8-ab]heptalen-2-yl)naphthalen-2-ol]: the IC50 was 0.0252 µM in data set [1]; 0.00076 µM in the data set with Panc-1 p-ERK; 0.0033 µM in [2]; 0.0012 µM in data set [3]; 0.0047 µM in data set [4]; 0.00076 µM in [5] (Homo sapiens). In addition, the IC50 in [6] was found to be 0.035 µM; in the data set with WT-KRAS cell line MKN-1, 0.076 µM. Further, the “Selectivity Fold” value in the data set with WT-KRAS cell line MKN-1 stood at 100 Fold.
With `C#Cc1c(F)ccc2cccc(-c3nc4c5c(nc(OCC67CCCN6C(COC(=O)N(C)C)CC7)nc5c3F)N3CC5CCC(N5)[C@H]3CO4)c12` (stereo in doubt) [Compound 38, (7a-((((5aS,6R,9S)-2-(8-ethynyl-7-fluoronaphthalen-1-yl)-1-fluoro-5a,6,7,8,9,10-hexahydro-5H-4-oxa-3,10a,11,13,14-pentaaza-6,9-methanonaphtho[1,8-ab]heptalen-12-yl)oxy)methyl)hexahydro-1H-pyrrolizin-3-yl)methyl dimethylcarbamate], the IC50 in [5] amounted to 0.07 µM.
As for `Fc1cc2cccc(F)c2c(-c2nc3c4c(nc(OC[C@@]56CCCN5C[C@H](F)C6)nc4c2F)N2C[C@@H]4CC[C@@H](N4)C2CO3)n1` (stereo partly drawn) [Compound 18, (6R,9S)-2-(3,8-difluoroisoquinolin-1-yl)-1-fluoro-12-(((2R,7aS)-2-fluorotetrahydro-1H-pyrrolizin-7a(5H)-yl)methoxy)-5a,6,7,8,9,10-hexahydro-5H-4-oxa-3,10a,11,13,14-pentaaza-6,9-methanonaphtho[1,8-ab]heptalene], the IC50 in data set [5] (Homo sapiens) amounted to 0.404 µM.
In the case of `Oc1cc(-c2nc3c4c(nc(OC[C@@]56CCCN5C[C@H](F)C6)nc4c2F)N2C[C@@H]4CC[C@@H](N4)C2CO3)c2cc(F)ccc2c1` (stereo partly drawn) [Compound 3, 6-fluoro-4-((6R,9S)-1-fluoro-12-(((2R,7aS)-2-fluorotetrahydro-1H-pyrrolizin-7a(5H)-yl)methoxy)-5a,6,7,8,9,10-hexahydro-5H-4-oxa-3,10a,11,13,14-pentaaza-6,9-methanonaphtho[1,8-ab]heptalen-2-yl)naphthalen-2-ol], the IC50 in data set [5] (Homo sapiens) came to 0.026 µM.
For `C#Cc1c(F)ccc2cccc(-c3nc4c5c(nc(OC[C@@]67CCCN6C[C@H](F)C7)nc5c3F)N3CC5CCC(N5)[C@H]3CO4)c12` (single isomer, unassigned) [Compound 10], the half-inhibitory concentration (IC50) worked out at 0.238 µM in [1]; 0.002 µM in the data set on Panc-1 p-ERK; 0.028 µM in data set [2]; 0.015 µM in data set [3]; 0.048 µM in [4]; 0.002 µM in [5] (Homo sapiens). Also, the results for the IC50 (in [6]; in the data set with WT-KRAS cell line MKN-1) were 0.49 µM and 0.343 µM, respectively. Moreover, the “Selectivity Fold” value in the data set on WT-KRAS cell line MKN-1 was determined as 171 Fold. In data set [7], the “Bioavailability (%)” value worked out at 37.7%. Also, the “Fa*Fg (%)” value in [7] came out at 54.0%.
For the compound `CC(=O)c1cccc2cc(O)cc(-c3nc4c5c(nc(OC[C@@]67CCCN6C[C@H](F)C7)nc5c3F)N3C[C@H]5CC[C@H](N5)[C@H]3CO4)c12` [Compound 26, 1-(8-((5aS,6S,9R)-1-fluoro-12-(((2R,7aS)-2-fluorotetrahydro-1H-pyrrolizin-7a(5H)-yl)methoxy)-5a,6,7,8,9,10-hexahydro-5H-4-oxa-3,10a,11,13,14-pentaaza-6,9-methanonaphtho[1,8-ab]heptalen-2-yl)-6-hydroxynaphthalen-1-yl) ethan-1-one], in [5] (Homo sapiens), the IC50 was found to be 0.148 µM.

What is called IC50 is the midpoint of a concentration-inhibition curve.

The values are drawn from patent US20240376123A1, “KRAS G12D INHIBITORS AND USES THEREOF” (SUZHOU ZANRONG PHARMA LIMITED, priority 2021, published 2024).
